# According to US20200121645A1, “COMPOSITION FOR PREVENTING OR TREATING EGFR-MUTANT NON-SMALL CELL LUNG CANCER” (THE ASAN FOUNDATION, priority 2018, published 2020):
# Assays:
# [1] = test system: EGFR in EGFR-mutant NSCLCs; experiment: Western blot of EGFR levels, EGFR signaling and PARP/caspase-3 cleavage; type: cell-based; conditions: for EGFR levels / EGFR signaling (AKT and ERK phosphorylation) / PARP and caspase-3 cleavage (apoptosis markers): EGFR-mutant NSCLCs, immunoblot
# Description: (§1) Cells were lysed in RIPA lysis buffer containing protease inhibitor cocktail (Thermo Scientific, Waltham, Mass., USA); lysate concentrations were assayed using a BCA assay (Thermo Scientific). Equal amounts of lysates were mixed with Laemmli loading dye and boiled for 10 minutes. Lysates were subjected to SDS-PAGE, and separated proteins were transferred to PVDF membranes (EMD Millipore, Billerica, Mass., USA). Membranes were blocked in Tris-buffered saline (TBS) containing 5% nonfat dry milk and 0.1% Tween 20 (TBS-T) prior to overnight incubation with primary antibody at 4° C. After washing with TBS-T, blots were exposed to appropriate horseradish peroxidase-conjugated secondary antibodies for 1 hour. Proteins-antibody complexes were visualized on Kodak X-ray film using an enhanced chemiluminescence (ECL) detection system (Thermo Scientific, Waltham, Mass., USA).
# [2] = test system: JNK in EGFR-mutant NSCLCs; experiment: Western blot for JNK and P-JNK; type: cell-based; conditions: for JNK activation (P-JNK): EGFR-mutant NSCLCs, immunoblot
# Description: as §1
# [3] = test system: EGFR-mutant NSCLCs (PC9 and H1975); experiment: Apoptotic cell death by Annexin V/PI staining and flow cytometry; type: cell-based; conditions: for apoptotic cell death: EGFR-mutant NSCLCs, 24 h treatment; for rescue from glucose deprivation-induced apoptosis: glucose-free medium, 24 h, SP600125 15 μM
# Description: (§2) Apoptotic cell death was detected using an Annexin-V/FITC assay. Cells were harvested by trypsinization, washed with PBS, and resuspended in Annexin-V binding buffer (10 mM HEPES, pH 7.4, 140 mM NaCl, 2.5 mM CaCl2) containing Annexin-V FITC and propidium iodide. Stained cells were quantified and analyzed on a flow cytometer (BeckmanCoulter, Brea, Calif., USA).
# [4] = test system: PC9 cells; experiment: Quantitation of intracellular ATP; type: cell-based; conditions: MPYR or AKG 7 mM, 24 h
# Description: Intracellular ATP concentrations were measured using an ATP Colorimetric/Fluorometric Assay Kit (Biovision Incorporated, Milpitas, Calif., USA) according to the manufacturer's instructions. Briefly, cells were lysed in […] of ATP assay buffer; 50 μL of supernatants were collected and added to a 96-well plate. To each well, 50 μL of ATP assay buffer containing ATP probe, ATP converter, and developer were added. Absorbance was measured at 570 nm.
# [5] = test system: PC-9/GR and PC-9/ER cells; experiment: Apoptotic cell death by Annexin V/PI staining and flow cytometry in EGFR-TKI-resistant cells; type: cell-based; conditions: PC-9/GR and PC-9/ER cells (T790M), 24 h
# Description: as §2
# [6] = test system: PC9 cells; experiment: TCA metabolite pools by LC-MS/MS; type: cell-based; conditions: 2DG 10 mM or BPTES 10 μM
# Description: Cells were grown to ˜60% confluence in growth media (RPMI1640, 10% FBS) on 10-cm dishes. After 24 hours, cells were harvested using 1.4 mL of cold methanol/H2O (80/20, v/v) after sequential PBS and H2O washes, and lysed; 100 μL of 5 μM internal standard was added. Metabolites were liquid-liquid extracted from the aqueous phase after adding chloroform. The aqueous phase was dried via vacuum centrifugation, and the sample was reconstituted with 50 μL of 50% methanol prior to LC/MS-MS analysis. The LC/MS-MS system was equipped with an Agilent 1290 HPLC (Agilent Technologies, Santa Clara, Calif., USA), Qtrap 5500 (ABSciex, Concord, Ontario, Canada), and reverse phase column (Synergi fusion RP 50×2 mm). A 3 μL volume was injected into the LC/MS-MS system and ionized with a turbo spray ionization source. Multiple reaction monitoring was used in negative ion mode, and the extracted ion chromatogram (EIC), corresponding to the specific transition for each metabolite was used for quantitation. The area under the curve of each EIC was normalized to that of the internal standard EIC. The peak area ratio of each metabolite to the internal standard was normalized using protein amount in a sample, and then was used for relative comparison.
# [7] = test system: pentose phosphate pathway; experiment: NADP+/NADPH ratios; type: cell-based; conditions: data not shown
# [8] = test system: PC9 and H1975 tumor cell xenografts; experiment: Xenograft studies, tumor volume; type: in vivo, SCID mice; conditions: 2DG 500 mg/kg, intraperitoneal, 5 days a week for 2 weeks; compared with EGFR-WT (A549) xenografts
# Description: Female severe combined immunodeficiency (SCID) mice were purchased from Charles River Laboratories. All experimental procedures were approved by the Institutional Animal Care and Use Committee of Asan Institute for Life Sciences (protocol 2015-14-241). For each animal, 2×10^6 cells mixed with Matrigel (BD Biosciences) were injected into the flank. Five mice per group were treated when the tumor volumes reached 50 to 100 mm^3 with anisomycin (5 mg/kg, intratumoral, 5 days a week) or 2-deoxy-D-glucose (2DG) 500 mg/kg, intraperitoneal, 5 days a week) for 2 weeks. The length (L) and width (W) of each tumor were measured using calipers, and the tumor volume (TV) was calculated as TV=(L×W^2)/2. To evaluate EGFR-related signaling in xenograft tumors, tumors were harvested after 3 days of drug treatment, lysed, and analyzed with Western blotting.
# [9] = test system: PC-9/GR and PC-9/ER cells; experiment: Western blot of JNK, EGFR signaling and apoptosis markers in EGFR-TKI-resistant cells; type: cell-based; conditions: 24 h
# Description: as §1
# [10] = test system: IGF1R and MET in EGFR-mutant NSCLCs; experiment: Western blot of other receptor tyrosine kinases; type: cell-based; conditions: 2DG 10 mM, 24 h
# Description: as §1
# [11] = test system: EGFR-mutant NSCLCs; experiment: ROS quantification (DCFDA and MitoSox Red); type: cell-based; conditions: 2DG 10 mM or rotenone 5 μM, 24 h
# Description: To determine cytoplasmic ROS, cells were incubated with 2′,7′-dichlorodihydrofluorescein diacetate (DCFDA, 5 μM; Invitrogen, Carlsbad, Calif., USA) for 30 minutes. Excess DCFDA was removed by washing cells twice with PBS at room temperature; labeled cells were trypsinized, rinsed, and resuspended in PBS. The oxidation of DCFDA to the highly fluorescent 2′,7′-dichloro-fluorescein (DCF), which is proportionate to ROS generation, was analyzed by flow cytometry. To analyze mitochondrial ROS, the cells were then incubated with 5 μM MitoSOX™ reagent (Thermo Scientific, Waltham, Mass., USA) for 10 minutes at 37° C. and trypsinized, washed with PBS, and then resuspended in 200 μL of PBS. Stained cells were then quantified and analyzed on a flow cytometer (BeckmanCoulter, Brea, Calif., USA). Excitation wavelength was 510 nm, and emission wavelength was 580 nm.
# [12] = test system: EGFR; experiment: EGFR transcriptional level; type: cell-based
# Description: Total RNA was extracted using TRIzol (Invitrogen, Carlsbad, Calif., USA). cDNA was synthesized from 2 μg of total RNA, using oligo-dT and MMLV HP reverse transcriptase (Epicentre, Madison, Wis., USA) according to the manufacturer's instruction. qRT-PCR was performed on an AriaMax Real-Time PCR instrument (Agilent Technologies, Santa Clara, Calif., USA) using the SYBR detection protocol. cDNA was calculated by the comparative Ct method, with 18S ribosomal RNA as a control. PCR reactions were performed in triplicates.
# [13] = test system: EGFR-mutant NSCLCs; experiment: Autophagy: LC3-II immunoblot and GFP-LC3 puncta; type: cell-based; conditions: 2DG 10 mM or anisomycin 5 μM, 24 h
# Description: as §1
# [14] = test system: EGFR-WT NSCLCs (A549 and H1299); experiment: Apoptotic cell death by Annexin V/PI staining and flow cytometry; type: cell-based; conditions: 24 h treatment
# Description: as §2
smiles,measurement,setting,value
"OO [H2O2, hydrogen peroxide]",EGFR levels,[1],markedly reduced the EGFR levels
same,EGFR signaling (AKT and ERK phosphorylation),[1],inhibited the AKT and ERK phosphorylation
same,PARP and caspase-3 cleavage (apoptosis markers),[1],cleaved the PARP and caspase-3 in a dose-dependent manner
same,JNK activation (P-JNK),[2],activated JNK in a dose-dependent manner
same,apoptotic cell death,[3],activated apoptosis in EGFR-mutant NSCLCs in a dose-dependent manner
"CC(=O)N[C@@H](CS)C(=O)O [NAC, N-acetyl-L-cysteine]","EGFR levels and AKT and ERK phosphorylation following glucose deprivation, 2DG, or rotenone treatment","[1]; NAC 4 mM, 24 h",significant recovery
same,"PARP and caspase-3 cleavage upon glucose deprivation, 2DG, or rotenone treatment","[1]; NAC 4 mM, 24 h",significantly inhibited
same,recovery of anisomycin-decreased EGFR signaling or EGFR levels,[1]; anisomycin with NAC (FIG. 10b),could not recover
same,"JNK activation induced by glucose deprivation, 2DG, or rotenone treatment","[2]; NAC 4 mM, 24 h",completely inhibited
same,inhibition of anisomycin-induced JNK activation,[2]; anisomycin with NAC (FIG. 10c),could not
same,rescue from 2DG treatment-induced apoptotic cell death,"[3]; 2DG 10 mM, MPYR or AKG 7 mM, NAC 4 mM",significantly rescued cell death
same,rescue from anisomycin-induced cell death,[3]; anisomycin 24 h in absence or presence of NAC (FIG. 10a),did not rescue
same,rescue from glucose deprivation-induced apoptosis,"[3]; MPYR or AKG 7 mM, NAC 4 mM",significantly rescued cell death
same,rescue from rotenone-mediated apoptosis,"[3]; rotenone 5 μM, methyl-pyruvate or NAC 4 mM",significantly rescued cell death
O=C(O)CCC(=O)C(=O)O [α-ketoglutarate],recovery of ATP levels reduced by glucose deprivation,[4],significant recovery of ATP levels
same,rescue from glucose deprivation-induced apoptosis,"[3]; MPYR or AKG 7 mM, NAC 4 mM",rescue EGFR-mutant NSCLCs from glucose deprivation-induced apoptosis
"O=CC[C@@H](O)[C@H](O)[C@H](O)CO [2DG, 2-deoxy-D-glucose]",apoptosis,[5],significant induction of apoptosis
same,levels of TCA cycle intermediates,[6],significantly decreased
same,NADP+/NADPH ratios,[7],no significant effect
same,tumor growth of xenografts,[8],robustly diminished the growth
same,JNK activation,[9]; 2DG 10 mM,markedly activated JNK
same,"EGFR level, AKT and ERK phosphorylation, PARP and caspase-3 cleavage",[9],"EGFR level reduction, AKT and ERK phosphorylation inhibition, and PARP and caspase-3 cleavage"
same,IGF1R phosphorylation,[10],significantly decreased
same,MET phosphorylation,[10],marginally decreased
same,total form of IGF1R and MET,[10],did not change
same,EGFR levels,[1],robust reduction of EGFR levels
same,EGFR signaling (AKT and ERK phosphorylation),[1],inhibition of EGFR signaling
same,PARP and caspase-3 cleavage (apoptosis markers),[1],leading to apoptosis
same,EGFR levels upon ATG7 knockdown,"[1]; cells expressing ATG7 shRNAs, 2DG 10 mM or anisomycin 5 μM, 24 h",did not reduce EGFR levels
same,cytoplasmic and mitochondrial ROS levels,[11],significant increases
same,EGFR transcriptional level,[12],no significant effect
same,LC3-II levels,[13],significant increase in LC3-II levels
same,number of GFP-LC3 puncta,[13]; PC9 cells expressing GFP-LC3,profoundly increased
same,apoptotic cell death,[14],only in EGFR-mutant NSCLCs
same,apoptotic cell death,[3],promoted apoptosis
O=C(Cc1ccccc1)Nc1nnc(CCSCCc2nnc(NC(=O)Cc3ccccc3)s2)s1 [BPTES],levels of TCA cycle intermediates,[6],no significant inhibitory effect
same,EGFR signaling (AKT and ERK phosphorylation),[1],had no effect on EGFR signaling
C=C(C)[C@H]1Cc2c(ccc3c2O[C@@H]2COc4cc(OC)c(OC)cc4[C@@H]2C3=O)O1 [rotenone],EGFR levels,[1],robustly decreased EGFR levels in both dose- and time-dependent manners
same,cytoplasmic and mitochondrial ROS levels,[11],significant increases
same,JNK activation (P-JNK),[2],significantly induced JNK activation in both dose- and time-dependent manners
same,apoptotic cell death,[3],rotenone-mediated apoptosis
OC[C@H]1O[C@H](O[C@H]2O[C@H](CO)[C@@H](O)[C@H](O)[C@H]2O)[C@H](O)[C@@H](O)[C@@H]1O [trehalose],EGFR levels,[1],significantly induced EGFR degradation in a dose-dependent manner
CCN(CC)CCCC(C)Nc1ccnc2cc(Cl)ccc12 (centres unmarked) [chloroquine],"PARP and caspase-3 cleavage upon glucose deprivation, 2DG, or anisomycin treatment","[1]; chloroquine 10 μM, 24 h",robustly inhibited
same,"reduction in EGFR levels caused by glucose deprivation, 2DG, or anisomycin treatment","[1]; in the presence of chloroquine, 24 h",dramatically inhibited
